Test results from patent US20260183432A1, “IMAGING AGENTS FOR DETECTING CD206+ MACROPHAGES” (THE GENERAL HOSPITAL CORPORATION, priority 2022, published 2026).
Entries after “also recorded” stand apart in the source; their conditions may differ. Like-named read-outs stand apart in the source and are kept apart here.

Assays:
CD206+ macrophages [1] = assay: MR imaging in mouse model of cutaneous wound healing; type: in vivo; conditions: 45-75 min post-injection, wildtype mice
[2] = test system: M1/M2 macrophages and HEK293 cells; assay: ICP-MS of gadolinium on cells incubated with agent; type: cell-based
Protocol: M1 and M2 differentiated macrophages were incubated with 1 mM of Mann2-DTPA-Gd for 1 h at 4° C. After washing with PBS (×3), cells were collected, digested with nitric acid (70%, 200 μL) overnight and subjected to ICP-MS to detect the amount of Gd.
M1 and M2 polarized differentiation. Raw 264.7 cells (Passage 8 from the cell core of center for Systems Biology at Massachusetts General Hospital, Boston) in 10 mL petri dishes were cultured with Dulbecco's modified eagle medium with high glucose (DMEM, Thermo Fisher Scientific, NY, USA) containing 10% of fetal bovine serum (FBS, Sigma-Aldrich, MO, USA) and 0.5% streptomycin/penicillin (Cellgro) until reaching 80% of confluency. Then differentiating media containing IFN-gamma (100 ng/ml the above medium) for M1 polarization and IL-4 (100 ng/mL) for M2 polarization were added to the dishes, respectively. After 24 h, the M1 and M2 polarized macrophages were ready for the following experiments.

CD206+ TAMs = assay: MR imaging of experimental glioma; type: in vivo, mouse; conditions: third week, 30 and 60 min post-injection
Protocol: Eight-to nine-week-old C57BL/6J female mice were used for MRI of wound healing and glioma (Jackson Laboratory, ME). The generation of wound healing and glioma is described in Examples 14 and 15, respectively. The mice with subcutaneous wounds were imaged on days 1, 4, and 7 longitudinally or on day 7. Mice with glioma were imaged on the third week. […] Regions of interest (ROIs) were drawn and the contrast-to-noise ratios (CNRs, CNRpre-contrast subtracted) were calculated by a radiologist with over 20 years of experience blinded to the identity of the imaging agent used and the strain of the mice (n=3 per group). […]
Eight- to nine-week-old C57BL/6J female mice were used in this experiment (Jackson laboratory, ME). […] The mice then were monitored daily for signs of discomfort or neurological symptoms.

[3] = in vitro relaxivity (r1), Bruker Minispect; type: physicochemical
Protocol: Relaxation time (T1) of Mann2-DTPA-Gd/MannGdFish at concentrations of 0.1, 0.2, 0.3, 0.5, 0.6, 0.75, and 1 mM in PBS was measured on the Bruker Minispect (Bruker Analytics, MA) at 0.47 T (20 MHz) at 40° C. The slope value of the linear function of 1/T1 (s) to their corresponding concentrations is defined as the relaxivity (n=3 for each concentration).

CD206+ macrophages [4] = assay: MR imaging in mouse model of cutaneous wound healing; type: in vivo
Protocol: Eight-to nine-week-old C57BL/6J female mice were used for MRI of wound healing and glioma (Jackson Laboratory, ME). The generation of wound healing and glioma is described in Examples 14 and 15, respectively. The mice with subcutaneous wounds were imaged on days 1, 4, and 7 longitudinally or on day 7. Mice with glioma were imaged on the third week. All the mice were imaged pre- and at 0, 15, 30, 45 and 60 min after 0.3 mmol/kg of Mann2-DTPA-Gd or MannGdFish was administered intravenously via a tail vein using serial T1 rapid acquisition with relaxation enhancement (RARE) sequence (TR: 935.77 ms, TE: 13.59 ms, averages: 12, rare factor: 4, 256×256×48 matrix size, 0.156×0.156×1 mm^3 voxel size) with chemical fat suppression using a Hermitian pulse shape with an 8.253 ms pulse and 701.19 Hz bandwidth 3.5 ppm down from the water peak and respiratory gating on a 4.7 T small animal MR scanner (Bruker, Cambridge, MA) with a 3 cm quadrature volume coil (Rapid MR International, Germany). Regions of interest (ROIs) were drawn and the contrast-to-noise ratios (CNRs, CNRpre-contrast subtracted) were calculated by a radiologist with over 20 years of experience blinded to the identity of the imaging agent used and the strain of the mice (n=3 per group).
Wound healing procedure. Seven-to ten-week-old C57BL/6J female mice (The Jackson Laboratories, ME) and mannose-receptor deficient mice were used in this study. A circular outline on the back of a mouse was made with a 4 mm biopsy punch (Kai Medical, Japan) under anesthesia using isoflurane. Then a full-thickness excisional wound was generated that extended through the subcutaneous tissue. A silicone splint was glued over the wound, anchored with 6-0 nylon sutures, and covered with a transparent occlusive dressing (OpSite). Xylazine/norepinephrine (100 μL) were intraperitoneally injected twice a day for two days and the mice were monitored daily.

relaxivity (r1) [3]: 3.6 mmol⁻¹ s⁻¹ | relaxivity (r1) ([3]; in PBS, 0.47 T, 40° C.): 3.6 mM⁻¹ s⁻¹
Compound: O=C([O-])CN(CCN(CC(=O)[O-])CC(=O)NC1C(O)OC(CO)C(O)C1O)CCN(CC(=O)[O-])CC(=O)NC1C(O)OC(CO)C(O)C1O.[Gd+3] (stereo not drawn) [Mann2-DTPA-Gd]
CNR on day 7 compared to day 4 (CD206+ macrophages [1]): 2- to 3 fold | amount of gadolinium on M2 macrophages versus M1 macrophages and HEK293 cells [2]: much higher than that on M1 macrophages and HEK293 cells; also recorded: markedly higher than that in M1 macrophages and HEK293 cells | contrast enhancement of glioma (CD206+ TAMs): Substantial contrast enhancement | CNR on day 7 compared to day 4 (CD206+ macrophages [4]; 45 min post-injection, wildtype mouse): about two-fold | CNR on day 7 versus days 1 and 4 (CD206+ macrophages [4]; 60 min post-injection, longitudinal imaging): much higher compared to that on days 1 and 4 | signal intensity / CNR time course (CD206+ macrophages [4]; mannose receptor-knockout mice, day 7, 0.3 mmol/kg): decreased significantly after 15 min post-injection compared to that in wildtype mice; also recorded: decreased over time after initially peaking at 15 min post-injection | contrast-to-noise ratio (CNR) time course (CD206+ macrophages [4]; wildtype mice, day 7 after wound induction): increasing over time until 45 min post-injection prior to slowly decreasing; also recorded: slow decrease of CNR
